We go through five compounds from PMC4399838, “Antipsychotic-Like Effect of the Muscarinic Acetylcholine Receptor Agonist BuTAC in Non-Human Primates” (PLoS ONE, 2015).

In series [1] the target is T1, human M4 muscarinic receptor (Homo sapiens, UniProt P08173).
T1 construct: purchased PerkinElmer Life and Analytical Sciences, Boston, MA
T1 sequence (P08173 1-479): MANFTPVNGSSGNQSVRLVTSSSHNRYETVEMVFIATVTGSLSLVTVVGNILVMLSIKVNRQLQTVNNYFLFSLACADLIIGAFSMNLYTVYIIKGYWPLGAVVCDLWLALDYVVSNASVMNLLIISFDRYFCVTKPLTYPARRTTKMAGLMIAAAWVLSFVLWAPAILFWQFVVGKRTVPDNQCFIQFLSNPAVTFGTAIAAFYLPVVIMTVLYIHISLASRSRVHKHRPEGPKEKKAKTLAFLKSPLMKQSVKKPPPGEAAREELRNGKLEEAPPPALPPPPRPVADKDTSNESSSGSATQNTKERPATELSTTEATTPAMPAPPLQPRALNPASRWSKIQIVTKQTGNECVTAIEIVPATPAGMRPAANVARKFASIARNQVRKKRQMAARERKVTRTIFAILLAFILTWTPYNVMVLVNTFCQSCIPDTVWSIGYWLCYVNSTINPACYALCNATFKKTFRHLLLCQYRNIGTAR
In words: GTP-γ-[35S] binding, antibody capture SPA (agonist and antagonist mode). It is filed as biochemical. The procedure: (§1) The antibody capture scintillation proximity technique previously described by DeLapp et al was used in a 96-well plate to determine GTP-γ-[35S] binding. One hundred μl (20–40 fmol/well) of membrane preparation from CHO cells that stably express the human M1-M5 muscarinic receptors (PerkinElmer Life and Analytical Sciences, Boston, MA) were incubated with varying concentration of test compound (final concentrations from 50pM to 1μM) for 30 min. One μM final concentration of GDP was added to M2 and M4 receptor membranes before incubation. […] (500 pM final concentration; Perkin Elmer Life and Analytical Sciences) was added to each well followed by 30 min of incubation. […] An anti-Gαq/11 antibody was used for the M1-, M3-, and M5 membranes, whereas an anti-Gαi-3 antibody was used for the M2- and M4 membranes (Eli Lilly and Company, Indianapolis, IN). […] By use of a Wallac MicroBeta TriLux scintillation counter (PerkinElmer), the plates were centrifuged for 10 min at 700 × g and counted for 1 min per well. The incubations took place at room temperature in GTP-binding assay buffer (20 mM Hepes, 100 mm NaCl, 5 mM MgC12, pH 7.4). The data were analyzed by use of nonlinear regression for a sigmoidal concentration response curve (GraphPad Prism v. 4.0). Data were normalized to a full agonist response (100 μM oxotremorine-M). […] The antagonist percent inhibition data were normalized to data generated with an EC90 concentration of acetylcholine. The mean relative EC50, IC50, and %Emax, and pKi values were calculated as a mean of at least three independent experiments±SEM. In order to obtain relevant comparisons between subtypes, the experimental system is routinely calibrated with reference agonists (oxotremorine-M, pilocarpine, MCN-A343) to measure full and partial agonism as well as to ensure that the system is not under- or over-reporting functional efficacies. The radioligand binding assays have earlier been described.
For orientation: Binding of GTPγS marks nucleotide exchange on a G protein.

For series [2], the target named is T2, human M5 muscarinic receptor (Homo sapiens, UniProt P08912).
T2 construct: purchased PerkinElmer Life and Analytical Sciences, Boston, MA
T2 sequence (P08912 1-532): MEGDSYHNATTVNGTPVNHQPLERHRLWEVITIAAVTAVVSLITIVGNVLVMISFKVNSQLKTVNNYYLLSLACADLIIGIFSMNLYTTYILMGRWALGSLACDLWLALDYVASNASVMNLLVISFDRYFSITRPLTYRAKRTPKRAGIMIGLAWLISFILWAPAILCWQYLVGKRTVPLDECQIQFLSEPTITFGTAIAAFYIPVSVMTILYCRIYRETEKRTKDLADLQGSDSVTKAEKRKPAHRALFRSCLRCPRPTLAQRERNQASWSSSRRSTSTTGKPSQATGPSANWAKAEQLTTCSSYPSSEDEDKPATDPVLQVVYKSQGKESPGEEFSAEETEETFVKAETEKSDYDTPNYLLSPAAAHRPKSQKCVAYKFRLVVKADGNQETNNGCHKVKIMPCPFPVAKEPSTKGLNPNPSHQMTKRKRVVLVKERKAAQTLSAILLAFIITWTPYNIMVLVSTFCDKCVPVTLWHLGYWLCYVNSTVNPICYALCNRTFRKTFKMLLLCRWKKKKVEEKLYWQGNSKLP
The series is described as above. The class given is biochemical. The protocol: as §1

Series [3] has as its target T3, human M2 muscarinic receptor (Homo sapiens, UniProt P08172).
T3 construct: purchased PerkinElmer Life and Analytical Sciences, Boston, MA
T3 sequence (P08172 1-466): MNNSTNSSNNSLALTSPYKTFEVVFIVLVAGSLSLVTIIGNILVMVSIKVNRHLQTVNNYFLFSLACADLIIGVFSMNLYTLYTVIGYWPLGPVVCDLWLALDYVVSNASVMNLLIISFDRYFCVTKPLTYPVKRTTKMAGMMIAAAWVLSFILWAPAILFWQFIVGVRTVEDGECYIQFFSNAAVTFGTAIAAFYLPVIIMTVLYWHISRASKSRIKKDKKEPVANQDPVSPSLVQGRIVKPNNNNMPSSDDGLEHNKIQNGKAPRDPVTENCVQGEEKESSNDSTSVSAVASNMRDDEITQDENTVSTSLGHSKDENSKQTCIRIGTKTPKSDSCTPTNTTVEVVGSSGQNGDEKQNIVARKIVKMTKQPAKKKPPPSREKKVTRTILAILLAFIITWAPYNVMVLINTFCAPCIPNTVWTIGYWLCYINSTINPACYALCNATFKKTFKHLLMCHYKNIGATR
Described as above. It is filed as biochemical. The procedure:
(§2) The antibody capture scintillation proximity technique previously described by DeLapp et al was used in a 96-well plate to determine GTP-γ-[35S] binding. One hundred μl (20–40 fmol/well) of membrane preparation from CHO cells that stably express the human M1-M5 muscarinic receptors (PerkinElmer Life and Analytical Sciences, Boston, MA) were incubated with varying concentration of test compound (final concentrations from 50pM to 1μM) for 30 min. One μM final concentration of GDP was added to M2 and M4 receptor membranes before incubation. […] (500 pM final concentration; Perkin Elmer Life and Analytical Sciences) was added to each well followed by 30 min of incubation. Then the labelled membranes were solubilized with 0.27% Nonidet P40 for 30 min where after they were incubated with 20 μl (final dilution of 1:400) of the appropriate rabbit polyclonal Gα antibody (Covance, Princeton, NJ) for 60 min. An anti-Gαq/11 antibody was used for the M1-, M3-, and M5 membranes, whereas an anti-Gαi-3 antibody was used for the M2- and M4 membranes (Eli Lilly and Company, Indianapolis, IN). After 60 min of incubation, 50 μl (1.25 mg/well) anti-rabbit scintillation proximity assay (SPA) beads (GE Healthcare, Piscataway, NJ) were added per well where after the plates were incubated for another 3 h. By use of a Wallac MicroBeta TriLux scintillation counter (PerkinElmer), the plates were centrifuged for 10 min at 700 × g and counted for 1 min per well. The incubations took place at room temperature in GTP-binding assay buffer (20 mM Hepes, 100 mm NaCl, 5 mM MgC12, pH 7.4). The data were analyzed by use of nonlinear regression for a sigmoidal concentration response curve (GraphPad Prism v. 4.0). Data were normalized to a full agonist response (100 μM oxotremorine-M). […] The antagonist percent inhibition data were normalized to data generated with an EC90 concentration of acetylcholine. The mean relative EC50, IC50, and %Emax, and pKi values were calculated as a mean of at least three independent experiments±SEM. In order to obtain relevant comparisons between subtypes, the experimental system is routinely calibrated with reference agonists (oxotremorine-M, pilocarpine, MCN-A343) to measure full and partial agonism as well as to ensure that the system is not under- or over-reporting functional efficacies. The radioligand binding assays have earlier been described.

The target of series [4] is T4, human M3 muscarinic receptor (Homo sapiens, UniProt P20309).
T4 construct: purchased PerkinElmer Life and Analytical Sciences, Boston, MA
T4 sequence (P20309 whole entry): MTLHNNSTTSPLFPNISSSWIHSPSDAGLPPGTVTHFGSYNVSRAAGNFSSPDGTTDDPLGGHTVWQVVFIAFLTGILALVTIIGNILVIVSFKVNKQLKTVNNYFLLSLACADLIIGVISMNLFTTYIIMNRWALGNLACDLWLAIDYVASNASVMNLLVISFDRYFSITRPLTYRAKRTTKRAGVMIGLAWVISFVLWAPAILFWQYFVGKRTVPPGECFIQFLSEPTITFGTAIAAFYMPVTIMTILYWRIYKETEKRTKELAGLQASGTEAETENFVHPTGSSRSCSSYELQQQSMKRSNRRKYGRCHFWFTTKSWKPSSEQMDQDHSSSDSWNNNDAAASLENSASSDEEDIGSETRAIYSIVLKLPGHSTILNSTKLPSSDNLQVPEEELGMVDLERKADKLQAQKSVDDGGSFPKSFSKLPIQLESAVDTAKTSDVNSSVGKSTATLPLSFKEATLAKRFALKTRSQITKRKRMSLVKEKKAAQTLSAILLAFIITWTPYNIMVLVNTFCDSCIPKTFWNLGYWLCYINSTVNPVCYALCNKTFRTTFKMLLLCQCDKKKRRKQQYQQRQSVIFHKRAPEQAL
The series is described as above. It is filed as biochemical. The protocol:
as §2

Series [5] concerns the target M3AChR (Homo sapiens, UniProt P20309). Briefly: Competitive radioligand binding. The conditions noted are these: competitive binding; negative log-transformed; read-out: pKi (converted).
The subject of series [6] is schizophrenic patients. The arrangement: method as in PMID 13425257. The conditions noted are these: subcutaneous injection, twenty-three schizophrenic patients; cited from earlier work.
Series [7] concerns antipsychotic-naïve Cebus Apella monkeys. In words: d-Amphetamine-induced behaviour (unrest, stereotypies, arousal), video rating. It is filed as in vivo. The procedure: (§3) Seven male Cebus Apella monkeys were used for evaluation the anti-amphetamine effect and the side effect profile of BuTAC. These monkeys were never before administered antipsychotics and had never experienced EPS, but had previously been administered amphetamine. For further evaluation of the EPS potential of BuTAC, the compound was tested in four male and female monkeys, all sensitized to drug-induced EPS by earlier chronic treatment with classical antipsychotic drugs.
(§4) All monkeys received all treatments with at least one week between tests and thus served as their own control. To avoid extended physical contact with the experimenter, the cages were reduced in sized by moving the back wall of the cage closer to the front wall to lightly immobilize the monkey while injecting the test substance in the thigh. This was done at 9 am at test days. After the appropriate pre-treatment time, the monkeys were videotaped in their cages at predefined time points after drug injection.
(§5) The rated primate behaviours and symptoms were the following: unrest, stereotypy, arousal, sedation and bradykinesia (Table 1). All monkeys were videotaped in 90-sec. sessions at specific time points throughout the test sessions. The videotapes were rated for amphetamine-induced behaviours and EPS by two experienced raters blinded to the treatment of the animal by means of a rating scale adapted from Peacock et al. and previously described by Andersen et al. (Table 1). In case of any discrepancy between the two ratings, the recording in question was re-evaluated and a rating agreed upon. The monkeys were videotaped at t = 30, 60, 90, 135, 150, 165, 180, 240, 300 min after BuTAC (or vehicle) administration. For the combination studies, d-amphetamine was injected at t = 120 min. Oral dyskinesia was measured in counts per 90 sec. The severity of other behaviours and symptoms were rated on a scale ranging from 0 (not present) to 6 (extreme presence).
(§6) For evaluation of anti-amphetamine effects, BuTAC was tested in doses of 0.001, 0.003, 0.01 mg/kg in combination with 0.5 mg/kg of d-amphetamine. BuTAC or peanut oil vehicle was injected s.c. at approximately 9 a.m. Pre-treatment time before s.c. injection of amphetamine was 120 min. For evaluation of side effects, BuTAC was tested alone at doses of 0.001, 0.003 and 0.01 mg/kg in antipsychotic-naïve monkeys and at doses of 0.003 and 0.01 mg/kg in monkeys sensitized to extrapyramidal side effects (EPS) by earlier long-term treatment with first generation antipsychotics. […] None of the animals were sacrificed.
(§7) Data from the experiments where BuTAC was administered alone collected at t = 60, 180, 300 min are presented. For the d-amphetamine / BuTAC study, data collected at t(amp) = 60, 120 and 180 min (t = 180, 240, 300 min) are reported. Data were analyzed for overall treatment effects at each time point by means of the non-parametric Friedman’s test for repeated measures. The Student Newman-Keuls comparison procedure was used to analyze for specific dose effects. For all tests, the accepted level of significance was p<0.05.

Series [8] shares this test system. In words: Side effects of BuTAC alone or with d-amphetamine. The class given is in vivo. The note with it: d-amphetamine 0.5 mg/kg alone. The procedure: as §3, §4, §5, §6, §7
The test system of series [9] is monkeys. Briefly: BuTAC-induced emesis and its inhibition by domperidone. The class given is in vivo, Cebus Apella. The procedure:
S1 Table. Emesis BuTAC / Domperidone
BuTAC 0.01 mg/kg / 1 in 7
Domperidone was purchased from Tocris Bioscience (Bristol, United Kingdom) and dissolved
in 0.9% saline. The compound was administered subcutaneously where after the animals

In series [10] the test system is monkeys. The arrangement: method as in PMID 10435384. The note with it: cited from earlier work.
Where [11] appears, read: antagonist mode, maximal inhibition of EC90 agonist response.
Setting [12] is: percentage of maximum 100 μM oxotremorine-M signal, read-out: % Emax.
Setting [13] is: percentage of maximum 100 μM oxotremorine-M signal.

Structures are written as SMILES.

Sequence of M3AChR (P20309 whole entry): as above

Take `CCCCCCOc1nsnc1C1=CCCN(C)C1` [Xanomeline, xanomeline]: the % Inhibition (in general, the percentage by which the read-out fell short of the control) in series [1] (setting [11]) was 51.4 ± 2.61%; in [2] (setting [11]), 81.8 ± 18.5%; in [3] (setting [11]) it was 19.4 ± 0.77%; in [4] (setting [11]), 87.6 ± 6.79%. Besides, the Emax (commonly the size of the effect at its maximum, as opposed to the concentration needed) in series [1] (setting [12]) came out at 41.8 ± 1.99%; in [2] (setting [12]), 28.7 ± 0.7%; in [3] (setting [13]), 55.2 ± 5.12%; in series [4] (setting [13]), 13.6 ± 0.56%. The EC50 in [4] (agonist mode, mean ± SEM of negative log-transformed values, read-out: Rel pEC50 (converted)) is 17.8 nM. In addition, the IC50 in series [4] (antagonist mode against EC90 of agonist, negative log-transformed, read-out: Rel pIC50 (converted)) is 832 nM. Besides, the Ki in series [5] is 27.5 nM.

`COC(=O)C1=CCCN(C)C1` [arecoline]: the “Patients with clinical improvement (“lucid intervals”)” value in series [6] is recorded as “more than 80%”.

As for `C[C@H](N)Cc1ccccc1.C[C@H](N)Cc1ccccc1.O=S(=O)(O)O` [d-amphetamine, d-Amphetamine sulphate, reference compound], the Stereotypies result in series [7] (amphetamine 0.5 mg/kg alone, all three test times) is reported as “significantly induced stereotypies”. The Arousal entry in series [7] (d-amphetamine 0.5 mg/kg alone, all test times) is on record as “induced arousal”. For the same compound, in series [7] (d-amphetamine 0.5 mg/kg alone, all time points, relative to vehicle), the Unrest result was “significantly increased unrest”. For the same compound, in [8], the “Emetic events (vomiting) (monkeys affected)” value worked out at 0, the “Salivation (monkeys affected)” value turned out to be 0 and the “Sedation 2 ≤ X ≤ 5 (monkeys affected)” value is reported as 0.

For `O=c1[nH]c2ccccc2n1CCCN1CCC(n2c(=O)[nH]c3cc(Cl)ccc32)CC1` [domperidone], the entries for the “Emetic events (vomiting), monkeys with emesis” value in series [9] (BuTAC 0.01 mg/kg / domperidone 0.05 mg/kg s.c.) and in [9] (BuTAC 0.01 mg/kg / domperidone 0.10 mg/kg s.c.) were 3/7 and 1/7, respectively. Further, in [9] (domperidone 0.05 and 0.1 mg/kg), the “Effect on BuTAC (0.01 mg/kg)-induced emesis” value is recorded as “dose dependently inhibited”.

For the compound `O=C(CCCN1CCC(O)(c2ccc(Cl)cc2)CC1)c1ccc(F)cc1` [haloperidol], the “Minimal effective dose to inhibit amphetamine-induced behaviour” value in [10] is reported as 0.015 mg/kg.
